Source: ChEMBL document CHEMBL5131527, “Novel BTK Inhibitors for Treating Autoimmune Disorders and Cancer” (ACS Med Chem Lett, 2022)

The molecules below were run against Tyrosine-protein kinase BTK (Homo sapiens, UniProt Q06187) (assay: Inhibition of BTK (unknown origin) using fluorescein-labeled polyGAT peptide as substrate incubated for 75 min in presence of ATP by time resolved fluorescence method).
Tyrosine-protein kinase BTK, sequence (Q06187 whole entry): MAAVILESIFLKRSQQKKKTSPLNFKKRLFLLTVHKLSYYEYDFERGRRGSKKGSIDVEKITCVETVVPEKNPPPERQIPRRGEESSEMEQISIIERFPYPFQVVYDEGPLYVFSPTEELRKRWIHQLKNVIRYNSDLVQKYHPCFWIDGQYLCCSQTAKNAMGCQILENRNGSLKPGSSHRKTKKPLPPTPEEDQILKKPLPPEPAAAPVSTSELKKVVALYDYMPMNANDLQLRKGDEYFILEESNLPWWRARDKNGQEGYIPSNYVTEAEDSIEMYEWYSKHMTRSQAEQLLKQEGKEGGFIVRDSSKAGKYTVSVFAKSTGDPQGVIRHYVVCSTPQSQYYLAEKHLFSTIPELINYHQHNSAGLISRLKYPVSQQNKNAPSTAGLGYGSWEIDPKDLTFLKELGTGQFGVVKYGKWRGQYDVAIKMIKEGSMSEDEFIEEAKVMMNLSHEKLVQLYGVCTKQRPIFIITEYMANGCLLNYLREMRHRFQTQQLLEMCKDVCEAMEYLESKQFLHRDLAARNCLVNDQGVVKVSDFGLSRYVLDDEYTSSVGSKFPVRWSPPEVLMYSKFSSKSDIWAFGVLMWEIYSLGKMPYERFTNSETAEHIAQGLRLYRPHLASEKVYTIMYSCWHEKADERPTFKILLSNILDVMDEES

Row | Structure (SMILES) | IC50 [nM]
1 | C=CC(=O)N(C)C1CCCN(c2cnccc2-c2ccc(CNC(=O)c3noc(C(C)(C)C)n3)c(C)c2)C1 (stereo unspecified) | ≤ 1
2 | C=CC(=O)N(C)C1CCN(c2cncnc2-c2ccc(CNC(=O)c3cn(C(C)(C)C)nn3)c(C)c2)C1 (stereo unspecified) | ≤ 1
3 | C=CC(=O)N1CCN(c2cncnc2-c2ccc(CNC(=O)c3nnn(C(C)(C)C)n3)c(C)c2)CC1 | ≤ 1
4 | C=CC(=O)N(C)CC1CCN(c2cncnc2-c2ccc(CNC(=O)c3noc(C(C)(C)C)n3)c(C)c2)C1 (stereo unspecified) | ≤ 1

Second part, the molecule after the results:

Row | IC50 [nM] | Structure (SMILES)
5 | ≤ 1 | C=CC(=O)N1CCN(c2cnccc2-c2ccc(CNC(=O)c3noc(C(C)(C)C)n3)c(C)c2)CC1
6 | ≤ 1 | C=CC(=O)N1CCN(c2cncnc2-c2ccc(CNC(=O)c3cn(C(C)(C)C)nn3)c(C)c2)CC1
